Reference: patent publication US20040067850A1, “Agricultural and horticultural composition” (priority 2001, published 2004)

Test system: Oat
Experiment: Gotland field trial, foliage application: manganese deficiency assessment in oat
Type: in vivo
Conditions: 4 kg/ha, scale 0 = no deficiency, 100 = all plants
Protocol: Oat was grown on a location on Gotland, Sweden, with severe manganese conditions. […] The invention, MicroplanTM Manganese (150 gram manganese complex bound per liter, amino acids used were methionin and lysine, respectively), was applied to the foliage at growing stage DC 25 (early tillering). […] The same amount of manganese was applied. The assessment, shown in the table 7 below, were done one week and two weeks after application. According to the following procedure: Manganese deficiency 0-100, scale 0=no deficiency 100=all plants/leaves showing deficiency (=yellow leaves).

O=S(=O)([O-])[O-].[Mn+2] [Manganese sulphate]
Manganese deficiency 0-100 (plant/leaf area with symptoms) (6/7-2001): 28 | Manganese deficiency 0-100 (plant/leaf area with symptoms) (16/7-2001): 25
